US6737383B1, “Herbicidal oxadiazolidines” (priority 1999, dated 2004)

Legend:
[1] = system: crabgrass; test: Test B pre/postemergence crabgrass; format: in vivo, Digitaria sanguinalis; conditions: for Crabgrass plant response rating: scale of 0 to 10 where 0 is no effect and 10 is complete control
Summary of the method: (§1)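 Herbicidal effect was estimated by eye on a ten-point control scale after plants spent twelve to sixteen days in a greenhouse following soil or foliar treatment. Foliar sprays targeted plants at one to four leaves; all doses were formulated in a non-phytotoxic solvent with surfactant.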

[2] = system: purple nutsedge; test: Test B pre/postemergence purple nutsedge; format: in vivo, Cyperus rotundus; conditions: for Nutsedge plant response rating: scale of 0 to 10 where 0 is no effect and 10 is complete control
Summary of the method: as §1

[3] = system: duck salad; test: Test B flood test duck salad; format: in vivo, Heteranthera limosa; conditions: for Plant response rating, Ducksalad (0 to 10 scale, 0 is no effect, 10 is complete control): visual evaluation after twelve to sixteen days
Summary of the method: (§2)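 Each value is a visual injury score relative to controls, with 10 meaning complete control and 0 no effect. Evaluation took place twelve to sixteen days after the 2-leaf-stage plants were treated and kept in the greenhouse.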

[4] = system: bamyardgrass; test: Test B flood test barnyardgrass; format: in vivo, Echinochloa crus-galli; conditions: for Plant response rating, Barnyardgrass (0 to 10 scale, 0 is no effect, 10 is complete control): visual evaluation after twelve to sixteen days
Summary of the method: as §2

[5] = system: winter wheat; test: Test E winter wheat; format: in vivo, Triticum aestivum; conditions: Postemergence, 0 to 100 scale, 0 is no effect, 100 is complete control
Summary of the method: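 Greenhouse-grown plants are treated (postemergence: 1- to 4-leaf stage, sandy loam/potting mix 60:40), then evaluated visually versus untreated controls some 21 to 28 days later.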

[6] = system: blackgrass; test: Test E blackgrass; format: in vivo, Alopecurus myosuroides; conditions: Preemergence
[7] = system: green foxtail; test: Test E green foxtail; format: in vivo, Setaria viridis; conditions: Preemergence
[8] = system: Italian ryegrass; test: Test E Italian ryegrass; format: in vivo, Lolium multiflorum; conditions: Preemergence
[9] = system: winter wheat; test: Test E winter wheat; format: in vivo, Triticum aestivum; conditions: Preemergence
[10] = system: wild oat; test: Test E wild oat; format: in vivo, Avena fatua; conditions: Preemergence
[11] = system: winter barley; test: Test E winter barley; format: in vivo, Hordeum vulgare; conditions: Preemergence
[12] = system: common groundsel; test: Test D common groundsel; format: in vivo, Senecio vulgaris; conditions: Postemergence, 0 to 100 scale
[13] = system: pitted morningglory; test: Test D pitted morningglory; format: in vivo, Ipomoea lacunosa; conditions: Postemergence, 0 to 100 scale
[14] = system: Spanishneedles; test: Test D Spanishneedles; format: in vivo, Bidens bipinnata; conditions: Postemergence, 0 to 100 scale
[15] = system: tall mallow; test: Test D tall mallow; format: in vivo, Malva sylvestris; conditions: Postemergence, 0 to 100 scale
[16] = system: Green foxtail; test: Test D green foxtail; format: in vivo; conditions: Postemergence, 0 to 100 scale, 0 no injury, 100 complete control
[17] = Postemergence, Rate 125 g/ha, scale 0 to 10, 0 is no effect, 10 is complete control
[18] = Preemergence, Rate 62 g/ha, scale 0 to 10 (0 no effect, 10 complete control)
[19] = Rate 500 g/ha, Postemergence, scale 0 to 10, 0 no effect, 10 complete control
[20] = Postemergence (flood test), Rate 125 g/ha, scale 0 to 10, 0 is no effect, 10 is complete control
[21] = Rate 62 g/ha, Postemergence (flood test species), scale of 0 to 10 where 0 is no effect and 10 is complete control
[22] = Rate 62 g/ha, flood test species, Pre-emergence
[23] = Rate 125 g/ha, Pre-emergence, flood test species, scale 0 to 10 where 0 is no effect and 10 is complete control
[24] = Rate 250 g/ha, Pre-emergence, flood-test species, scale 0 to 10, 0 is no effect, 10 is complete control
[25] = Rate 500 g/ha, listed under Postemergence (flood test species), scale 0 to 10, 0 no effect, 10 complete control
[26] = Rate 500 g/ha, Pre-emergence, flood test species, scale 0 to 10 (0 no effect, 10 complete control)
[27] = Rate 250 g/ha, Postemergence (flood test species), scale of 0 to 10 where 0 is no effect and 10 is complete control
[28] = Rate 125 g/ha, 0 to 100 scale (0 no effect, 100 complete control)
[29] = Rate 500 g/ha, 0 to 100 scale (0 no effect, 100 complete control)
[30] = Rate 250 g/ha, 0 to 100 scale, 0 no effect, 100 complete control
[31] = Rate 32 g/ha, 0 no injury, 100 complete control
[32] = Rate 64 g/ha, 0 no injury, 100 complete control
[33] = Rate 125 g/ha, 0 no injury, 100 complete control
[34] = Rate 16 g/ha, 0 no injury, 100 complete control

CC(C)N(C(=O)n1oc(=O)n(C2CCC2)c1=O)c1ccc(F)cc1 [Compound 350]
Plant response rating, Crabgrass [1, 17]: 1 | Plant response rating, Crabgrass [1, 18]: 8 | Crabgrass plant response rating (0 to 10 scale) ([1]; Preemergence, Rate 125 g/ha): 8 | Crabgrass plant response rating ([1]; Preemergence, Rate 250 g/ha): 10 | Crabgrass plant response rating ([1]; Preemergence, Rate 500 g/ha): 10 | Crabgrass plant response rating ([1]; Rate 62 g/ha, Postemergence): 1 | Plant response rating, Crabgrass [1, 19]: 7 | Plant response rating, Nutsedge [2, 17]: 0 | Nutsedge plant response rating (0 to 10 scale) ([2]; Preemergence, Rate 125 g/ha): 0 | Nutsedge plant response rating ([2]; Preemergence, Rate 250 g/ha): 0 | Nutsedge plant response rating ([2]; Preemergence, Rate 500 g/ha): 10 | Nutsedge plant response rating ([2]; Rate 62 g/ha, Postemergence): 0 | Plant response rating, Nutsedge [2, 19]: 0 | Plant response rating, Ducksalad [3, 20]: 2 | Ducksalad plant response rating [3, 21]: 0 | Plant response rating, Ducksalad (0 to 10 scale, 0 is no effect, 10 is complete control) [3, 22]: 0 | Ducksalad plant response rating [3, 23]: 0 | Ducksalad plant response rating [3, 24]: 0 | Plant response rating, Ducksalad [3, 25]: 3 | Ducksalad plant response rating [3, 26]: 0 | Plant response rating, Barnyardgrass [4, 20]: 0 | Barnyardgrass plant response rating [4, 21]: 0 | Plant response rating, Barnyardgrass (0 to 10 scale, 0 is no effect, 10 is complete control) [4, 22]: 0 | Barnyardgrass plant response rating [4, 23]: 0 | Plant response rating, Barnyardgrass [4, 27]: 3 | Barnyardgrass plant response rating [4, 24]: 0 | Plant response rating, Barnyardgrass [4, 25]: 5 | Barnyardgrass plant response rating [4, 26]: 0 | Plant response rating, Wheat (winter) ([5]; Rate 125 g/ha): 50 | Plant response rating, Wheat (winter) ([5]; Rate 250 g/ha): 30 | Plant response rating, Wheat (winter) ([5]; Rate 500 g/ha): 40 | Plant response rating, Blackgrass [6, 28]: 50 | Plant response rating, Blackgrass ([6]; Rate 250 g/ha, 0 to 100 scale): 30 | Plant response rating, Blackgrass [6, 29]: 60 | Plant response rating, Green foxtail [7, 28]: 65 | Plant response rating, Green foxtail ([7]; Rate 250 g/ha, 0 to 100 scale): 55 | Plant response rating, Green foxtail [7, 29]: 85 | Plant response rating, I. Ryegrass [8, 28]: 60 | Plant response rating, I. Ryegrass ([8]; Rate 250 g/ha, 0 to 100 scale): 90 | Plant response rating, I. Ryegrass [8, 29]: 85 | Plant response rating, Wheat (winter) [9, 28]: 40 | Plant response rating, Wheat (winter) ([9]; Rate 250 g/ha, 0 to 100 scale): 40 | Plant response rating, Wheat (winter) [9, 29]: 50 | Plant response rating, Wild oat [10, 28]: 40 | Plant response rating, Wild oat ([10]; Rate 250 g/ha, 0 to 100 scale): 60 | Plant response rating, Wild oat [10, 29]: 65 | Plant response rating, Barley (winter) [11, 28]: 5 | Plant response rating, Barley (winter) [11, 30]: 10 | Plant response rating, Barley (winter) [11, 29]: 25

COCC(C)n1c(=O)on(C(=O)N(c2ccc(F)cc2F)C(C)C)c1=O (centres unmarked) [Compound 352]
Plant response rating, Crabgrass [1, 17]: 3 | Plant response rating, Crabgrass [1, 18]: 9 | Crabgrass plant response rating (0 to 10 scale) ([1]; Preemergence, Rate 125 g/ha): 10 | Crabgrass plant response rating ([1]; Preemergence, Rate 250 g/ha): 10 | Crabgrass plant response rating ([1]; Preemergence, Rate 500 g/ha): 10 | Crabgrass plant response rating ([1]; Rate 62 g/ha, Postemergence): 1 | Plant response rating, Crabgrass [1, 19]: 4 | Plant response rating, Nutsedge [2, 17]: 0 | Plant response rating, Nutsedge [2, 18]: 0 | Nutsedge plant response rating (0 to 10 scale) ([2]; Preemergence, Rate 125 g/ha): 0 | Nutsedge plant response rating ([2]; Preemergence, Rate 250 g/ha): 0 | Nutsedge plant response rating ([2]; Preemergence, Rate 500 g/ha): 0 | Nutsedge plant response rating ([2]; Rate 62 g/ha, Postemergence): 0 | Plant response rating, Nutsedge [2, 19]: 2 | Plant response rating, Ducksalad [3, 20]: 0 | Ducksalad plant response rating [3, 21]: 0 | Plant response rating, Ducksalad [3, 25]: 2 | Plant response rating, Barnyardgrass [4, 20]: 3 | Barnyardgrass plant response rating [4, 21]: 0 | Plant response rating, Barnyardgrass [4, 27]: 3 | Plant response rating, Barnyardgrass [4, 25]: 3 | Plant response rating, Com. groundsel [12, 31]: 0 | Plant response rating, Com. groundsel [12, 32]: 50 | Plant response rating, Com. groundsel [12, 33]: 100 | Plant response rating, Com. groundsel ([12]; Rate 250 g/ha): 100 | Plant response rating, P. morninglory [13, 34]: 0 | Plant response rating, P. morninglory [13, 31]: 0 | Plant response rating, P. morninglory [13, 32]: 0 | Plant response rating, P. morninglory [13, 33]: 0 | Plant response rating, P. morninglory ([13]; Rate 250 g/ha): 0 | Plant response rating, Spanishneedles [14, 34]: 0 | Plant response rating, Spanishneedles [14, 31]: 0 | Spanishneedles plant response rating [14, 32]: 0 | Spanishneedles plant response rating [14, 33]: 40 | Plant response rating, Spanishneedles ([14]; Rate 250 g/ha): 30 | Plant response rating, Tall Mallow [15, 34]: 0 | Plant response rating, Tall Mallow [15, 31]: 0 | Tall Mallow plant response rating [15, 32]: 30 | Tall Mallow plant response rating [15, 33]: 30 | Plant response rating, Tall Mallow ([15]; Rate 250 g/ha): 20 | Green foxtail plant response rating ([16]; Rate 64 g/ha): 100 | Green foxtail plant response rating ([16]; Rate 125 g/ha): 100

CCC(CC)n1c(=O)on(C(=O)N(c2ccc(F)cc2F)C(C)C)c1=O [Compound 353]
Plant response rating, Crabgrass [1, 17]: 0 | Plant response rating, Crabgrass [1, 18]: 7 | Crabgrass plant response rating (0 to 10 scale) ([1]; Preemergence, Rate 125 g/ha): 9 | Crabgrass plant response rating ([1]; Preemergence, Rate 250 g/ha): 10 | Crabgrass plant response rating ([1]; Preemergence, Rate 500 g/ha): 10 | Crabgrass plant response rating ([1]; Rate 62 g/ha, Postemergence): 0 | Plant response rating, Crabgrass [1, 19]: 3 | Plant response rating, Nutsedge [2, 17]: 0 | Plant response rating, Nutsedge [2, 18]: 0 | Nutsedge plant response rating (0 to 10 scale) ([2]; Preemergence, Rate 125 g/ha): 0 | Nutsedge plant response rating ([2]; Preemergence, Rate 250 g/ha): 0 | Nutsedge plant response rating ([2]; Preemergence, Rate 500 g/ha): 0 | Nutsedge plant response rating ([2]; Rate 62 g/ha, Postemergence): 0 | Plant response rating, Nutsedge [2, 19]: 0 | Plant response rating, Ducksalad (0 to 10 scale, 0 is no effect, 10 is complete control) [3, 22]: 0 | Ducksalad plant response rating [3, 23]: 0 | Ducksalad plant response rating [3, 24]: 0 | Ducksalad plant response rating [3, 26]: 0 | Plant response rating, Barnyardgrass (0 to 10 scale, 0 is no effect, 10 is complete control) [4, 22]: 0 | Barnyardgrass plant response rating [4, 23]: 0 | Barnyardgrass plant response rating [4, 24]: 0 | Barnyardgrass plant response rating [4, 26]: 9 | Plant response rating, Wheat (winter) ([5]; Rate 125 g/ha): 20 | Plant response rating, Wheat (winter) ([5]; Rate 250 g/ha): 30 | Plant response rating, Wheat (winter) ([5]; Rate 500 g/ha): 40 | Plant response rating, Blackgrass [6, 28]: 10 | Plant response rating, Blackgrass ([6]; Rate 250 g/ha, 0 to 100 scale): 50 | Plant response rating, Blackgrass [6, 29]: 55 | Plant response rating, Green foxtail [7, 28]: 70 | Plant response rating, Green foxtail ([7]; Rate 250 g/ha, 0 to 100 scale): 100 | Plant response rating, Green foxtail [7, 29]: 100 | Plant response rating, I. Ryegrass [8, 28]: 40 | Plant response rating, I. Ryegrass ([8]; Rate 250 g/ha, 0 to 100 scale): 90 | Plant response rating, I. Ryegrass [8, 29]: 90 | Plant response rating, Wheat (winter) [9, 28]: 20 | Plant response rating, Wheat (winter) ([9]; Rate 250 g/ha, 0 to 100 scale): 40 | Plant response rating, Wheat (winter) [9, 29]: 60 | Plant response rating, Wild oat [10, 28]: 30 | Plant response rating, Wild oat ([10]; Rate 250 g/ha, 0 to 100 scale): 55 | Plant response rating, Wild oat [10, 29]: 85 | Plant response rating, Barley (winter) [11, 28]: 10 | Plant response rating, Barley (winter) [11, 30]: 20 | Plant response rating, Barley (winter) [11, 29]: 30
